Experimental findings from patent US20060258598A1, “Alpha-keto carbonyl calpain inhibitors” (priority 2003, published 2006) are described below.

Experiment [1] relates to cellular calpains in C2C12 myoblasts. As to the kind of experiment: Calpain inhibition assay in C2C12 myoblasts. The format is cell-based. The following applies: 2 h incubation, calcium ionophore Br-A-23187, read-out: Calp I IC50 Myoblast. The procedure, abridged: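 Confluent C2C12 myoblasts in fusion medium (DMEM, 5% horse serum) exposed to compound for 2 h at 37 °C, then loaded with 400 μM Suc-Leu-Tyr-AMC for 20 min at room temperature in buffer with 4 mM CaCl2, HEPES pH 7.25. Calpains activated by Br-A-23187 ionophore (20 μM in added buffer); AMC fluorescence read each minute for 60 min at 37 °C to derive IC50.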

In a further experiment the target is T1, 20S Proteasome (Oryctolagus cuniculus, UniProt G1T4Q9).
T1 sequence (G1T4Q9 1-263): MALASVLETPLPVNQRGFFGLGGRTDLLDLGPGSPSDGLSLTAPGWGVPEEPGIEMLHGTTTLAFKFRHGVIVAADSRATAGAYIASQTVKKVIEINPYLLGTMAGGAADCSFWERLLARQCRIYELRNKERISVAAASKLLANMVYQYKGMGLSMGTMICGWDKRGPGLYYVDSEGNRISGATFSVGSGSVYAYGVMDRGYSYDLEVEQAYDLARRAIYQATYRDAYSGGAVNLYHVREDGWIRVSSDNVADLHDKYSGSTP
As to the kind of experiment: 20S Proteasome assay. The format is biochemical, Rabbit. The following applies: substrate Suc-Leu-Leu-Val-Tyr-AMC; read-out: 20S Prot IC50. As to the method: 25 μl of a reaction buffer containing 400 μM of the fluorogenic substrate Suc-Leu-Leu-Val-Tyr-AMC (Bachem) are dispensed per well of a white microtiter plate. Test compounds dissolved in 0.5 μl DMSO are added. To start the reaction; 25 μl of reaction buffer containing 35 ng of enzyme (20S Proteasome, Rabbit, Calbiochem) are added. The increase in fluorescence (excitation at 360 nm; emission at 440 nm) is measured over 30 min at 30° C. at 30″. The IC50's are then determined from the slopes.

The test system of the next experiment is mdx mouse. As to the kind of experiment: Longterm treatment of mdx mice (model for Duchenne Muscular Dystrophy). The format is in vivo. As to conditions: 10 mg/kg/day i.p., 4 weeks, vs vehicle mdx mice. As to the method: The mdx mouse is a well established animal model for Duchenne Muscular Dystrophy (Bulfield G., Siller W. G., Wight P. A., Moore K. J., X chromosome-linked muscular dystrophy (mdx) in the mouse, Proc. Natl. Acad. Sci. USA., 1984, 81(4), 1189-1192). Selected compounds were tested in longterm treatments of mdx mice, according to the procedures described below.
Mouse strains: C57BL/10scsn and C57BL/10scsn mdx mouse strains were purchased at The Jackson Laboratory (ME, USA) and bred inhouse. Mouse males were sacrificed at the age of 3 or 7 weeks by CO2 asphyxiation.
Treatment: Compounds were dissolved in 50% PEG, 50% saline solution and applied by i.p. injection.
Histology: Tibialis anterior (TA) and diaphragm (Dia) muscles were collected and mounted on cork supports using gum tragacanth (Sigma-Aldrich, Germany). The samples were snap-frozen in melting isopentane and stored at −80° C. 12 μm thick cryosections of the mid-belly region of muscles were prepared. For staining, sections were air dried and fixed with 4% PFA in PBS for 5 minutes, washed 3 times with PBS and incubated over night at 4° C. in PBS containing 2 μg/ml Alexa Fluor™ 488 conjugated wheat-germ agglutinin (WGA-Alexa, Molecular Probes, Eugen, Oreg., USA) to stain membrane-bound and extracellular epitopes and 1 μg/ml 4′,6-diamidino-2-phenylindole (DAPI; Molecular Probes) to stain nuclei.
Image acquisition and analysis: Fluorescence microscopy images of both labels were acquired using a digital camera (ColorView II, Soft Imaging System, Munster, Germany) coupled to a fluorescence microscope (Vanox S, Olympus, Tokyo, Japan). Combination of these two stainings to a composite image, assembling of several images to a complete image of the entire muscle cross-section and further semi-automated analysis was performed using the image analysis program AnalySIS (Soft Imaging System). Image analysis of 1200-2900 muscle fibers in each section was performed in three steps: 1) determination of the muscle fiber boundaries, 2) determination of the muscle fiber size, and 3) determination of the percentage of muscle fibers containing centralized nuclei. Six different geometrical parameters were tested for the determination of the muscle fiber size: (a) the “minimal feret” (the minimum distance of parallel tangents at opposing borders of the muscle fiber), (b) the “area”, (c) the “minimal inner diameter” (the minimum diameter through the center of the muscle fiber), (d) the “minimal diameter” (the minimum diameter of a muscle fiber for angles in the range 0° through 179° with step width 1°, (e) the “minimal outer diameter” (the minimum diameter through the muscle fiber from outer border to outer border), and (f) the “perimeter”. The variance coefficient of the muscle fiber size is defined as follows: variance coefficient=(standard deviation of the muscle fiber size/mean of the muscle fiber size of the section)*1000. For statistical analysis of different variance coefficient values Mann-Whitney U test was used.
Selected Examples of the present invention were active in the mdx mouse model at 10 mg/kg/day, using 3 week old mice and a treatment period of 4 weeks (N=5−10).

Each structure is given as a SMILES string.

As for `CCNC(=O)C(=O)[C@H](Cc1ccc(Br)cc1)NC(=O)[C@H](CC(C)C)NC(=O)CCCCC1CCSS1` (stereo partly drawn) [Example 64], the IC50 stood at 500 nM in experiment [1] and 40 nM at 20S Proteasome. The entries for the “decrease in the variance coefficient of the muscle fiber size” value with mdx mouse (Dia (diaphragm)) and in the experiment on mdx mouse (TA (tibialis anterior)) were 29% and 43%, respectively. The “reduction of percentage of centralized nuclei” value in the experiment on mdx mouse (Dia (diaphragm)) came out at 61%; with mdx mouse (TA (tibialis anterior)) it was 28%.
